Results from patent US20240316047A1, “INHIBITORS OF RNA HELICASE DHX9 AND USES THEREOF” (ACCENT THERAPEUTICS, INC., priority 2022, published 2024).

Biological target: Human recombinant DHX9 protein (Homo sapiens (Human), UniProt Q08211)
Test: DHX9 ATPase assay (ADP-Glo)
Format: biochemical
Details: for IC50: read-out: DHX9 Biochemical Inflection Point

Chain of Human recombinant DHX9 protein (Q08211 whole entry): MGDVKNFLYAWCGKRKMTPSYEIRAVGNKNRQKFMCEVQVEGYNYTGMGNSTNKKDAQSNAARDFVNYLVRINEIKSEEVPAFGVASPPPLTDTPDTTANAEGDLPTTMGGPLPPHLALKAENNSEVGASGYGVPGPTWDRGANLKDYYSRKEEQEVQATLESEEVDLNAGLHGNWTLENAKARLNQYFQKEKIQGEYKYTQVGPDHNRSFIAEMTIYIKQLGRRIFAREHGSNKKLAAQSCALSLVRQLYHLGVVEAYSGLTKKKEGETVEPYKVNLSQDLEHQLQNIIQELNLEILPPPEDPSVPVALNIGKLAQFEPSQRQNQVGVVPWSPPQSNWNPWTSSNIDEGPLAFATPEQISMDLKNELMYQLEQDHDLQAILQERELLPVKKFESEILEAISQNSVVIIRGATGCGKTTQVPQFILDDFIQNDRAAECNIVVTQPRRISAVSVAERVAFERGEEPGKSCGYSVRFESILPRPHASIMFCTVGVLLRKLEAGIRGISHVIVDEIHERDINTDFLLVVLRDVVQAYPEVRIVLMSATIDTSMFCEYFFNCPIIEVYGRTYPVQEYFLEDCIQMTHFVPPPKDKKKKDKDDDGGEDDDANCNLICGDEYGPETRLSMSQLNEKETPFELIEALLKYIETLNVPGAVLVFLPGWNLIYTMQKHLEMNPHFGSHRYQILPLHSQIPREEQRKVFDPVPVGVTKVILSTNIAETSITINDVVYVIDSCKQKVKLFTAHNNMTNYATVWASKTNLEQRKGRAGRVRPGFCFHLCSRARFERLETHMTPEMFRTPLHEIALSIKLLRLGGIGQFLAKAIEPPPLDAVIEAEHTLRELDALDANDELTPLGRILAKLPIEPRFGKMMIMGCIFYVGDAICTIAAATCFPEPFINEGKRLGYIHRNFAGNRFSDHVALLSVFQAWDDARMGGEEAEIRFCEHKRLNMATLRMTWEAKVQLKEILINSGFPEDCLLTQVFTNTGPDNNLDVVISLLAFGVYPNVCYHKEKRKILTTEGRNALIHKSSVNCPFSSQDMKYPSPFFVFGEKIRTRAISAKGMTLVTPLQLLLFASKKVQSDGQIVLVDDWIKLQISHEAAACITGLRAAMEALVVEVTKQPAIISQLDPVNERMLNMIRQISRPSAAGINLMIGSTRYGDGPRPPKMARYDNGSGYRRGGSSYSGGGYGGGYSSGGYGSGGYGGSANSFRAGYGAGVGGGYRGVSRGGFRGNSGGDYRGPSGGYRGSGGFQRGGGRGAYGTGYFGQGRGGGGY

| Structure (SMILES) | DHX9 Biochemical Max Inhibition | IC50 [nM] |
| --- | --- | --- |
| Cc1cc(C(=O)Nc2cc(Cl)cc(NS(C)(=O)=O)c2)cn1-c1ccc(N2CC3COCC3C2)cn1 (stereo not drawn) [Example 405] | 93.9 | 5.2 |
| Cc1sc(C(=O)Nc2cc(Cl)cc(NS(C)(=O)=O)c2)cc1-c1ncc(N2CCC3(CC2)COC3)cc1F [Example 474] | 70.4 | 11.7 |
| CCOc1cnc(-n2cc(C(=O)Nc3cc(Cl)cc(NS(C)(=O)=O)c3)cc2C)nc1 [Example 208] | 79.9% | 15.5 |
| Cn1cc(C(=O)Nc2cc(Cl)cc(NS(C)(=O)=O)c2)cc1-c1ncc(N2CCC3(CC2)CC3)cc1F [Example 468] | 96 | 132 |
| Cc1cc(C(=O)Nc2cc(Cl)cc(NS(C)(=O)=O)c2)cn1-c1ncccc1O [Example 281] | 75.7% | 28 |
| Cn1cc(C(=O)Nc2cc(Cl)cc(NS(C)(=O)=O)c2)cc1-c1ccc(C2CCN(CC(F)(F)F)CC2)cn1 [Example 619] | 81.3 | 178 |
| CS(=O)(=O)Nc1cc(Cl)cc(NC(=O)c2cnn(C3CCCC3OCc3ccccc3)c2)c1 (stereo not drawn) [Example 424] | 81.7 | 5.1 |
| CS(=O)(=O)Nc1cc(Cl)cc(NC(=O)c2cnn(-c3ncccc3OCc3c[nH]cn3)c2)c1 [Example 254] | 64.1% | 59.5 |
| CS(=O)(=O)Nc1cc(Cl)cc(NC(=O)c2cn(-c3ccccc3)cn2)c1 [Example 1, N-(3-chloro-5-(methylsulfonamido)phenyl)-1-phenyl-1H-imidazole-4-carboxamide] | 48.3% | 320 |
| CN1CCN(c2csc(C(=O)Nc3cc(Cl)cc(NS(C)(=O)=O)c3)c2)C1=O [Example 431] | 73.5 | 8.6 |
| CS(=O)(=O)Nc1cc(Cl)cc(NC(=O)c2cnn(-c3ncccc3C(F)(F)F)c2)c1 [Example 47] | 64.7% | 269 |
| Cc1cc(C(=O)Nc2cc(Cl)cc(NS(C)(=O)=O)c2)cn1-c1ncc(N2CC(F)(F)C2)cc1F [Example 420] | 95 | 17.7 |
| CS(=O)(=O)Nc1cc(Br)cc(NC(=O)c2cnn(-c3ccccc3OCc3ccccc3)c2)c1 [Example 51] | 61.1% | 145 |
| CS(=O)(=O)Nc1cc(Cl)cc(NC(=O)c2cnn(-c3ccc(N4CC5CCC(C4)O5)cn3)c2)c1 [Example 191] | 67.6% | 4.2 |
| CS(=O)(=O)Nc1cc(Cl)cc(NC(=O)c2cc(-c3ncccn3)cs2)c1 [Example 26] | 65.6% | 1.8 |
| COc1cnc(-c2cc(C(=O)Nc3cc(Cl)cc(NS(C)(=O)=O)c3)cn2C)c(F)c1 [Example 454] | 82.9 | 5 |
| COC(=O)N1CCN(c2ccc(-c3cc(C(=O)Nc4cc(Cl)cc(NS(C)(=O)=O)c4)cn3C)nc2)CC1 [Example 596] | 72.2 | 18.1 |
| Cn1cc(C(=O)Nc2cc(Cl)cc(NS(=O)(=O)CCO)c2)cc1-c1ncc(F)cc1F [Example 581] | 50.5 | 99.1 |
| Cn1cc(C(=O)Nc2cc(Cl)cc(NS(C)(=O)=O)c2)cc1-c1ccc(N2CCN(C(=O)C3CCCC3)CC2)cn1 [Example 592] | 77.5 | 54.1 |

| Structure (SMILES) | DHX9 Biochemical Max Inhibition | IC50 [nM] |
| --- | --- | --- |
| Cc1cc(C(=O)Nc2cc(Cl)cc(NS(C)(=O)=O)c2)cn1-c1ccc(N2CCCC2)cn1 [Example 270] | 74.1% | 9.7 |
| Cc1sc(C(=O)Nc2cc(Cl)cc(NS(C)(=O)=O)c2)cc1-c1ncc(C2(O)CN(C)C2)cc1F [Example 681] | 77.5 | 2.4 |
| Cc1cc(C(=O)Nc2cc(Cl)cc(NS(C)(=O)=O)c2)cn1-c1ccc(C#N)cn1 [Example 425] | 90 | 55.5 |
| Cc1sc(C(=O)Nc2cc(Cl)cc(NS(C)(=O)=O)c2)cc1-c1ncccn1 [Example 22] | 71% | 2.5 |
| CS(=O)(=O)Nc1cc(Br)cc(NC(=O)c2cnn(-c3cccc(OC(F)F)n3)c2)c1 [Example 57] | 45.8% | 14600 |
| Cc1cc(C(=O)Nc2cc(Cl)cc(NS(C)(=O)=O)c2)cn1-c1ccc(N2CC3CC3C2)cn1 (stereo not drawn) [Example 411] | 74.2 | 41.6 |
| CCOc1ccc(-c2csc(C(=O)Nc3cc(Cl)cc(NS(C)(=O)=O)c3)c2)nc1 [Example 339] | 71% | 10.7 |
| Cc1sc(C(=O)Nc2cc(Cl)cc(NS(C)(=O)=O)c2)cc1-c1ncc(C(F)(F)F)cc1F [Example 368] | 67.3% | 118 |
| Cc1sc(C(=O)Nc2cc(Cl)cc(NS(C)(=O)=O)c2)cc1-c1ncc(C(F)(F)F)cc1C#N [Example 367] | 63.5% | 55.9 |
| COc1cnc(-c2csc(C(=O)Nc3cc(Cl)cc(NS(C)(=O)=O)c3)c2)nc1 [Example 340] | 65.6% | – |
| CCS(=O)(=O)Nc1cc(Cl)cc(NC(=O)c2cc(-c3ncc(OC(C)(C)C)cn3)c(C)s2)c1 [Example 566] | 66 | 186 |
| CS(=O)(=O)Nc1cc(Cl)cc(NC(=O)c2cc(C(F)(F)F)n(-c3ccc(F)cn3)c2)c1 [Example 267] | 66.4% | 248 |
| Cn1cc(C(=O)Nc2cc(Cl)cc(NS(C)(=O)=O)c2)cc1-c1ncncc1OCc1cc(F)cc(F)c1 [Example 627] | 75.8 | 29.4 |
| Cc1cccnc1-c1csc(C(=O)Nc2cc(Cl)cc(NS(=O)(=O)C(C)C)c2)c1 [Example 373] | 49.9% | – |
| Cn1cc(C(=O)Nc2cc(Cl)cc(NS(C)(=O)=O)c2)cc1-c1ccc(C#N)cn1 [Example 570] | 69.8 | 21.4 |
| CS(=O)(=O)Nc1cc(Cl)cc(NC(=O)c2cc(-c3ccccn3)c(C3CC3)s2)c1 [Example 177, N-(3-chloro-5-(methylsulfonamido)phenyl)-5-cyclopropyl-4-(pyridin-2-yl)thiophene-2-carboxamide] | 77% | 21.6 |
| CS(=O)(=O)Nc1cc(Cl)cc(NC(=O)c2cc3cnccc3s2)c1 [Example 288] | 58.7% | 132 |
| Cn1cc(C(=O)Nc2cc(Cl)cc(NS(C)(=O)=O)c2)cc1-c1ncc(N2CC(F)C2)cc1F [Example 466] | 82.2 | 11.1 |
| CS(=O)(=O)Nc1cc(Cl)cc(NC(=O)c2cnn(-c3cc(N4CCNCC4)ccn3)c2)c1 [Example 147] | 76.5% | 6.3 |

| Structure (SMILES) | DHX9 Biochemical Max Inhibition | IC50 [nM] |
| --- | --- | --- |
| Cc1sc(C(=O)Nc2cc(Cl)cc(NS(C)(=O)=O)c2)cc1-c1ncc(F)cc1N1CCC2(CC1)CC2 [Example 507] | 52.9 | 1510 |
| Cc1cnc(-c2cc(C(=O)Nc3cc(Cl)cc(NS(C)(=O)=O)c3)cn2C)c(F)c1 [Example 580] | 70.5 | 23.9 |
| Cc1cc(C(=O)Nc2cc(Cl)cc(NS(C)(=O)=O)c2)cn1-c1ncc(N2CCC2)cn1 [Example 398] | 65.9 | 8.8 |
| Cc1sc(C(=O)Nc2cc(Cl)cc(NS(C)(=O)=O)c2)cc1-c1ncc(F)cc1C#CC(C)(C)O [Example 696] | 75.4 | 11.5 |
| Cc1cc(C(=O)Nc2cc(Cl)cc(NS(C)(=O)=O)c2)cn1-c1ccc(Cl)cn1 [Example 389] | 82.3% | 19.5 |
| COCc1cnc(-c2cc(C(=O)Nc3cc(Cl)cc(NS(C)(=O)=O)c3)cn2C)nc1 [Example 690] | 75.8 | 7.3 |
| CS(=O)(=O)Nc1cc(Cl)cc(NC(=O)c2cc(-c3ccccc3)cs2)c1 [Example 75] | 55.5% | – |
| Cc1cc(C(=O)Nc2cc(Cl)cc(NS(C)(=O)=O)c2)cn1-c1ccc(F)cn1 [Example 390] | 80.4% | 1.5 |
| CS(=O)(=O)Nc1cc(Cl)cc(NC(=O)c2cc(-c3ncc(F)cc3OCc3cncnc3)n(CC(F)(F)F)c2)c1 [Example 735] | 80.1 | 7 |
| CS(=O)(=O)Nc1cc(Cl)cc(NC(=O)c2cc(-c3ncccc3NC(=O)C3CC3)cs2)c1 [Example 220] | 79.7% | 16 |
| CS(=O)(=O)Nc1cc(Cl)cc(NC(=O)c2cc(CO)n(-c3ncccc3OCc3cncc(F)c3)c2)c1 [Example 723] | 84.3 | 1.6 |
| CCS(=O)(=O)Nc1cc(Cl)cc(NC(=O)c2cc(-c3ncc(F)cn3)n(C)c2)c1 [Example 542] | 73 | 30 |
| CC(C)n1cc(C(=O)Nc2cc(Cl)cc(NS(C)(=O)=O)c2)cc1-c1ncc(F)cn1 [Example 667] | 67.1 | 145 |
| CS(=O)(=O)Nc1cc(Cl)cc(NC(=O)c2cc(-c3ncc(F)cn3)c(Cl)s2)c1 [Example 450] | 62.8 | 79.1 |
| Cc1sc(C(=O)Nc2cc(Cl)cc(NS(=O)(=O)CCO)c2)cc1-c1ncccc1OCc1cncc(F)c1 [Example 626] | 75.7 | 4.2 |
| CS(=O)(=O)Nc1cc(Cl)cc(NC(=O)c2cnn(-c3ccccc3OCc3cccc(F)c3)c2)c1 [Example 210] | 71.3% | 3.6 |
| CC(C)Oc1cc(N2CC(F)(F)C2)cnc1-c1cc(C(=O)Nc2cc(Cl)cc(NS(C)(=O)=O)c2)cn1C [Example 513] | 56.4 | 77.7 |
| Cc1cccc(O)c1-c1csc(C(=O)Nc2cc(Br)cc(NS(C)(=O)=O)c2)c1 [Example 19] | 53.5% | 115 |
| Cc1cc(C(=O)Nc2cc(Cl)cc(NS(C)(=O)=O)c2)cn1-c1ccc(N2CC(F)(F)C2)cn1 [Example 399] | 72.1 | 11.4 |
